The source of these data is paper PMC5651913, “Photosensing and Thermosensing by Phytochrome B Require Both Proximal and Distal Allosteric Features within the Dimeric Photoreceptor” (Scientific Reports, 2017).

One series addresses T1, full-length (FL) PhyB (Arabidopsis thaliana, UniProt P14713).
T1 construct: full length, 1172 residues; N-terminal 6His-TEV tag cut off; intron-less gene; E. coli BL21(DE3); homodimer, 320 kDa by SEC
T1 sequence (P14713 1-1172): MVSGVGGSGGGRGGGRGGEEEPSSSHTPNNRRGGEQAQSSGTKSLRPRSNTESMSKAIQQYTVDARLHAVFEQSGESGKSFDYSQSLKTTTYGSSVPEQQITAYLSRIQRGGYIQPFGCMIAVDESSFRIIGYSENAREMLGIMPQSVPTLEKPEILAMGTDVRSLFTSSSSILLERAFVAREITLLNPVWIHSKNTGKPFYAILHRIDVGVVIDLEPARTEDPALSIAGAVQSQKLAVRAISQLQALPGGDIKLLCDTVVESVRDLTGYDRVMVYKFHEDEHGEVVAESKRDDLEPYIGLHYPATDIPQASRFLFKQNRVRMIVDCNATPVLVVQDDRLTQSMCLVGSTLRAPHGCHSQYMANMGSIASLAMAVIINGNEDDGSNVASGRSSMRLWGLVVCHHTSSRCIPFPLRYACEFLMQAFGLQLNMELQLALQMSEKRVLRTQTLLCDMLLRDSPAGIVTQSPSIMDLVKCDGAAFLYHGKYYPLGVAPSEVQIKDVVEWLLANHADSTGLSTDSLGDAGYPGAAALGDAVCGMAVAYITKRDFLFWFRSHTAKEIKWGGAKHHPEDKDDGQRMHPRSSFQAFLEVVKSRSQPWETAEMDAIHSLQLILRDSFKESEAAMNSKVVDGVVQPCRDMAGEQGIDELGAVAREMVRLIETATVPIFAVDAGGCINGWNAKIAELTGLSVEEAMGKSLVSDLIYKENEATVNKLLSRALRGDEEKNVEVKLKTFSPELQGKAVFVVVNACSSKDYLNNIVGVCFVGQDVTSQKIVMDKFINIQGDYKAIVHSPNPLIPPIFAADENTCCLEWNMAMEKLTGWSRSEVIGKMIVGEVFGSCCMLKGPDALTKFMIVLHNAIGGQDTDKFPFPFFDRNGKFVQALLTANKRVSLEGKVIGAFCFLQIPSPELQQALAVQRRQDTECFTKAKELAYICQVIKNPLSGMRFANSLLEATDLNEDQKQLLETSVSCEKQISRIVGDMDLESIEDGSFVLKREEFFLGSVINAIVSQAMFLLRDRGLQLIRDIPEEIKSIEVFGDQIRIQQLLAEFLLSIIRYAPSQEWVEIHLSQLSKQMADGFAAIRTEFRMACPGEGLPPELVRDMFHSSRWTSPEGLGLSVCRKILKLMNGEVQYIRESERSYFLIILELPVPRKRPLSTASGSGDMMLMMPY
Description: assembly in E. coli, zinc-induced fluorescence after SDS-PAGE, UV-Vis absorption. The format is binding. The note with it: covalent; GAF domain cysteine; 25 °C, pH 7.9.

Another series deals with T2, PhyB 1–450 fragment (Arabidopsis thaliana, UniProt P14713).
T2 construct: NTE-PAS-GAF, residues 1-450; N-terminal 6His-TEV tag cut off; E. coli BL21(DE3)
T2 sequence (P14713 1-450): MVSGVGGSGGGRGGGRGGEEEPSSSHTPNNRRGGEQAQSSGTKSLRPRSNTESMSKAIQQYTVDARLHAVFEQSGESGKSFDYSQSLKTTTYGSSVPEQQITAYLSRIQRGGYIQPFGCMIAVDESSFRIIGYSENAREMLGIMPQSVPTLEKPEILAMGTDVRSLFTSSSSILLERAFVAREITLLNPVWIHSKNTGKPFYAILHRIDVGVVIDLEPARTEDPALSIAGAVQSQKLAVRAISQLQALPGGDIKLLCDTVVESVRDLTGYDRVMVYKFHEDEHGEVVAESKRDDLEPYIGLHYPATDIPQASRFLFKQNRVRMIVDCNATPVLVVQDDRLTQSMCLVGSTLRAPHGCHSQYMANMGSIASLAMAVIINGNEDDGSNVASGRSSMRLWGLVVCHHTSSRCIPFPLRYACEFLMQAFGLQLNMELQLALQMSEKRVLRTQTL
The series is described as above. The note with it: covalent; GAF domain cysteine; 25 °C, pH 7.9. The series is classed as binding.

Series [1] concerns the target T3, PhyB 1–624 fragment (PSM) (Arabidopsis thaliana, UniProt P14713).
T3 construct: photosensory module (NTE-PAS-GAF-PHY), residues 1-624; N-terminal 6His-TEV tag cut off; E. coli BL21(DE3)
T3 sequence (P14713 1-624): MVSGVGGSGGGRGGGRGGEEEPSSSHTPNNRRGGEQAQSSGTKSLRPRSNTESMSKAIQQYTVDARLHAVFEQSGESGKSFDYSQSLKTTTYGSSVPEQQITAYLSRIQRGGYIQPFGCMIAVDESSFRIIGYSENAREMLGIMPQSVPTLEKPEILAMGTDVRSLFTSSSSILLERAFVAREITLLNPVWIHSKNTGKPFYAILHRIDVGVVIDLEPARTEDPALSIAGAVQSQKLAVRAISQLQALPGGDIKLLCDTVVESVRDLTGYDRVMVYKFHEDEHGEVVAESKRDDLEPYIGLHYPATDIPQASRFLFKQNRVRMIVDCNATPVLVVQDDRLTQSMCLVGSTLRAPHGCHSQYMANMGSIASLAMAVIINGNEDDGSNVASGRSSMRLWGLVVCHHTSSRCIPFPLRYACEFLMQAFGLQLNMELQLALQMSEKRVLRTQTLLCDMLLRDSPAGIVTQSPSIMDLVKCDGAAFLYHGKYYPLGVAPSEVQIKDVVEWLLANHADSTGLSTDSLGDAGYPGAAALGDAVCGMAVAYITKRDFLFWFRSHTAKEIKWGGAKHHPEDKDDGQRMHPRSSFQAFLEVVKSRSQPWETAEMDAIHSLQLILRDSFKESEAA
The series is described as above. The format is binding. The note with it: covalent; GAF domain cysteine; 25 °C, pH 7.9.

Series [2] has as its target T4, PhyB 51–624 (NTE truncation) (Arabidopsis thaliana, UniProt P14713).
T4 construct: PSM residues 51-624; N-terminal 6His-TEV tag cut off; E. coli BL21(DE3)
The series is described as above. The format is binding. The note with it: covalent; GAF domain cysteine; 25 °C, pH 7.9.

Series [3] deals with T5, PhyB 100–624 (NTE truncation) (Arabidopsis thaliana, UniProt P14713).
T5 construct: PSM residues 100-624; N-terminal 6His-TEV tag cut off; E. coli BL21(DE3)
The series is described as above. The series is classed as binding. The note with it: covalent; GAF domain cysteine; 25 °C, pH 7.9.

Series [4] concerns the target T6, PhyB 90–624 (NTE truncation) (Arabidopsis thaliana, UniProt P14713).
T6 construct: PSM residues 90-624; N-terminal 6His-TEV tag cut off; E. coli BL21(DE3); 4OUR is an earlier structure of this fragment
The series is described as above. The format is binding. The note with it: covalent; GAF domain cysteine; 25 °C, pH 7.9.

Another series has as its target T7, PhyB 1–908 fragment (Arabidopsis thaliana, UniProt P14713).
T7 construct: residues 1-908 (HKRD removed); N-terminal 6His-TEV tag cut off; E. coli BL21(DE3)
T7 sequence (P14713 1-908): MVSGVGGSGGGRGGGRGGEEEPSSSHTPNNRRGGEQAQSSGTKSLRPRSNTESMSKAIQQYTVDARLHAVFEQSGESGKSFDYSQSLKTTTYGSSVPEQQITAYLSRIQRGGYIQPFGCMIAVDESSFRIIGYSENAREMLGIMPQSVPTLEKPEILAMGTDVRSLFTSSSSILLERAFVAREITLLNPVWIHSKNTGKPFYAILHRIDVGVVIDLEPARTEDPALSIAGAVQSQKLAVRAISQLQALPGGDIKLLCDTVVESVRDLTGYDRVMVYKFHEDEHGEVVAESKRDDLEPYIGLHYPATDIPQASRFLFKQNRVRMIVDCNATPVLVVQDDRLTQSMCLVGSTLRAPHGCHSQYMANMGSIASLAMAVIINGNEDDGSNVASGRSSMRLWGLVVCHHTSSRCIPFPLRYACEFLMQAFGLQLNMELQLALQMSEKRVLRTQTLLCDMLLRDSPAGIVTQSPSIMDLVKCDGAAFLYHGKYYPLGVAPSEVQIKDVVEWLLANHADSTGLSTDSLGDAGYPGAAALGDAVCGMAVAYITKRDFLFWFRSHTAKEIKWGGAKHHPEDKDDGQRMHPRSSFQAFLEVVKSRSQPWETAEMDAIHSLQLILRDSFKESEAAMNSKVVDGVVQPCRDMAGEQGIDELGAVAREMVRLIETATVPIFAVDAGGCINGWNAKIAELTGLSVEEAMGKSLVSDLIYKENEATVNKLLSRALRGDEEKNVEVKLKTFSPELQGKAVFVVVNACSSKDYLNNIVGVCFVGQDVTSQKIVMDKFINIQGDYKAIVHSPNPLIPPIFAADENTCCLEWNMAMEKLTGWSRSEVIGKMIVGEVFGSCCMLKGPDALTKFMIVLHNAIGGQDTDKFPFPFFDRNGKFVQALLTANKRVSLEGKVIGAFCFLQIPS
The description is as above. The following applies: covalent; GAF domain cysteine; 25 °C, pH 7.9. The format is binding.

Series [5] concerns the molecule itself. Description: SEC; Superdex 200 HR 10/30, 10 °C, 150 mM KCl, 50 mM HEPES-NaOH pH 7.8, 0.3 mM TCEP; samples as Pr at 0.6 mg/ml; apparent mass from size standards; monomer to dimer.

Turning to `C/C=C1/C(=C/c2[nH]c(/C=C3N=C(/C=C4\NC(=O)C(CC)=C4C)C(C)=C\3CCC(=O)O)c(CCC(=O)O)c2C)NC(=O)[C@@H]1C` [PCB], the entries for the “assembly in E. coli, zinc-induced fluorescence after SDS-PAGE, UV-Vis absorption” value (shortened to “assembly in E. coli”) at full-length (FL) PhyB and at PhyB 1–450 fragment were “recombinant PhyB assembled with PCB with efficiencies equal to that seen for PΦB” and “the fragment assembled with PCB generated as least some of a ‘Pfr’-like state”, respectively.
In the case of `C=CC1=C(C)/C(=C/C2=NC(=C\c3[nH]c(/C=C4\NC(=O)[C@H](C)\C4=C/C)c(C)c3CCC(=O)O)/C(CCC(=O)O)=C2C)NC1=O` [PΦB], the “assembly in E. coli” value is “purified chromoproteins were readily obtained with high bilin occupancy and near normal Pr absorption” at full-length (FL) PhyB; “The truncations were expressed and assembled with PΦB in Escherichia coli” in series [1]; “all of the truncations expressed well, efficiently assembled with PΦB, and displayed normal Pr absorption” in series [2]; “all of the truncations expressed well, efficiently assembled with PΦB, and displayed normal Pr absorption” in series [3]; “all of the truncations expressed well, efficiently assembled with PΦB, and displayed normal Pr absorption” in series [4]; “The truncations were expressed and assembled with PΦB in Escherichia coli” on PhyB 1–450 fragment. For the same molecule, the “assembly in E. coli” value on PhyB 1–908 fragment was “The truncations were expressed and assembled with PΦB in Escherichia coli”.

B1: full-length Arabidopsis thaliana PhyB assembled with PΦB (natural protein, UniProt P14713 1-1172, looked up)
chain: MVSGVGGSGGGRGGGRGGEEEPSSSHTPNNRRGGEQAQSSGTKSLRPRSNTESMSKAIQQYTVDARLHAVFEQSGESGKSFDYSQSLKTTTYGSSVPEQQITAYLSRIQRGGYIQPFGCMIAVDESSFRIIGYSENAREMLGIMPQSVPTLEKPEILAMGTDVRSLFTSSSSILLERAFVAREITLLNPVWIHSKNTGKPFYAILHRIDVGVVIDLEPARTEDPALSIAGAVQSQKLAVRAISQLQALPGGDIKLLCDTVVESVRDLTGYDRVMVYKFHEDEHGEVVAESKRDDLEPYIGLHYPATDIPQASRFLFKQNRVRMIVDCNATPVLVVQDDRLTQSMCLVGSTLRAPHGCHSQYMANMGSIASLAMAVIINGNEDDGSNVASGRSSMRLWGLVVCHHTSSRCIPFPLRYACEFLMQAFGLQLNMELQLALQMSEKRVLRTQTLLCDMLLRDSPAGIVTQSPSIMDLVKCDGAAFLYHGKYYPLGVAPSEVQIKDVVEWLLANHADSTGLSTDSLGDAGYPGAAALGDAVCGMAVAYITKRDFLFWFRSHTAKEIKWGGAKHHPEDKDDGQRMHPRSSFQAFLEVVKSRSQPWETAEMDAIHSLQLILRDSFKESEAAMNSKVVDGVVQPCRDMAGEQGIDELGAVAREMVRLIETATVPIFAVDAGGCINGWNAKIAELTGLSVEEAMGKSLVSDLIYKENEATVNKLLSRALRGDEEKNVEVKLKTFSPELQGKAVFVVVNACSSKDYLNNIVGVCFVGQDVTSQKIVMDKFINIQGDYKAIVHSPNPLIPPIFAADENTCCLEWNMAMEKLTGWSRSEVIGKMIVGEVFGSCCMLKGPDALTKFMIVLHNAIGGQDTDKFPFPFFDRNGKFVQALLTANKRVSLEGKVIGAFCFLQIPSPELQQALAVQRRQDTECFTKAKELAYICQVIKNPLSGMRFANSLLEATDLNEDQKQLLETSVSCEKQISRIVGDMDLESIEDGSFVLKREEFFLGSVINAIVSQAMFLLRDRGLQLIRDIPEEIKSIEVFGDQIRIQQLLAEFLLSIIRYAPSQEWVEIHLSQLSKQMADGFAAIRTEFRMACPGEGLPPELVRDMFHSSRWTSPEGLGLSVCRKILKLMNGEVQYIRESERSYFLIILELPVPRKRPLSTASGSGDMMLMMPY
modifications: phytochromobilin (PΦB) covalently bound to the cysteine of the GAF domain
notes: Phytochrome B (PhyB), Arabidopsis thaliana, full-length 1172-residue polypeptide, from an intron-less PhyB gene designed for recombinant expression; Analysed as Pr; TEV cleavage of the printed tag probably leaves its last G at the N-terminus (surmised); also called FL PhyB; FL
Consider B1, for which the “stoichiometry N” value in series [5] worked out at 2.
